These results are taken from patent publication US20250042918A1, “COMPOUNDS” (Fundación Del Sector Públlco Estatal Centro Nacional De …, priority 2021, published 2025).

Structures are written as SMILES.

The test system of assay [1] is BAD S112 phosphorylation in H1299 cells overexpressing PIM-1 (H1299Pim1). Description: BAD S112 phosphorylation inhibition assay (in Cell ELISA). Type of assay: cell-based. Particulars: Homo sapiens, NCI-H1299, 4 hours, medium without FBS, read-out: BAD PH 1299PIM 1 ELIWO. The method, then: The efficacy of the compounds of the invention on the inhibition of BAD phosphorylation was measured by an in Cell ELISA.
Materials: H1299 cells overexpressing PIM-1 (H1299Pim1). DMSO Plates: 96-well-Polystyrene, Untreated, Round-Bottom plates from Costar (Cat #3797). Cell Plates: 96-Flat bottom biocoated with Poly-D-Lysin plates with lid from Becton Dickinson (Cat #354651). Cell Culture Medium: DMEM high glucose, 10% Fetal Bovine Serum, 2 mM L-Glutamine, P/S. Antibodies: phospho BAD S112 antibody from Cell Signaling (cat. #9291S), anti-rabbit conjugated with peroxidase from Amersham (cat. #3619). Reagent: SuperSignal ELISA femto from Pierce (cat. #1001110).
Procedure: Cells were seeded in 15000 cells per 200 μl per well into 96-well plates and incubated for 16 h at 37° C., 5% CO2. On day two, nine serial 1:2 compound dilutions were made in DMSO in a 96-well plate. The compounds were added to duplicate wells in 96-well cell plates using a FX BECKMAN robot (Beckman Coulter) and were incubated at 37° C. under CO2 atmosphere in medium without fetal bovine serum (FBS). After 4 hours, relative levels of BAD S112 phosphorylation were measured in Cell ELISA using SuperSignal ELISA Femto substrate (Pierce) and read on VICTOR (Perkin Elmer). EC50 values were calculated using ActivityBase from IDBS.
A general note: An ELISA detects its analyte on a solid surface through an enzyme-linked reagent.

In assay [2] the test system is human leukaemia KG-1 subcutaneous xenograft. Description: In vivo efficacy in leukaemia model, subcutaneous xenograft. Particulars: KG-1 xenograft, CB-17 SCID mice, oral 25 BID, 50 and 100 mg/kg QD, 21 days. The method, then: The anti-tumour efficacy of the compound of Example 1 was measured in human leukaemia KG-1 subcutaneous xenograft models in CB-17 SCID mice.
Mice grouping was on day 0 (DO) and Example 1 25 BID*21 group was started on the evening of day 0 (DO), other groups were started on the morning of day 1 (D1). At the 21 days of the treatment, 8 h and 24h post the last dose, 4 mice each from vehicle group, Example 1 25 mg/kg BID group and Example 1 50 mg/kg group were subjected tumour collection.
Animals: Female mice (Mus musculus) strain: CB-17 SCID; 6-8 weeks old Body weight: 18-20 g; were obtained from Shanghai Lingchang BioTech Co., Ltd. Of the 59 obtained, 40 were grouped for efficacy study. The mice were kept in individual ventilation cages at constant temperature (20˜26° C.) and humidity (40-70%) with 5 animals in each cage. […]
Tumour Measurements and the Endpoints: The major endpoint was tumour growth delay or cure. Tumour size was measured thrice weekly in two dimensions using a caliper, and the volume was expressed in mm^3 using the formula: V=0.5 a×b^2 where a and b were the long and short diameters of the tumour, respectively. […] TGI was calculated according to the following equation: […]

The subject of assay [3] is Naïve CD4+ T cells, iTreg cells. Put plainly: CD4+ T cell differentiation under iTreg conditions (FoxP3, FACS). The settings on record: 12.5 nM. Type of assay: cell-based, mice. How it is done: Naïve CD4^+ T cells were purified from mice spleens and lymph nodes using positive selection by magnetic beads (CD4 L3T4 Kit, Miltenyi Biotec, UK). The purified T cells were activated by plate-bound αCD3ε (1 μg/ml; 2C11) and αCD28 (3 μg/ml; 37.51) in the presence or absence of the compound of Example 1 or Cyclosporin A (Sigma Aldrich), and cultured for 72 hrs under Th1 conditions (IL-12 [20 ng/ml]+αIL-4 (11B1) [10 μg/ml]), 72 hrs under Th17 conditions (αIFNγ [10 μg/ml]+αIL-4 [5 μg/ml]+IL-6 [[…]]+TGFβ(5 ng/ml)), and 96 hrs under iTreg conditions (TGFβ (5 ng/ml)) at 37° C.
Intracellular protein expression was evaluated by first restimulating the cells with phorbol-12-myristate 13-acetate (PMA)(10 ng/ml) (Sigma Aldrich), ionomycin (1 μg/ml) (Sigma Aldrich) and Brefeldin A (5 μg/ml) (eBioscience) for 4-6 hours at 37° C. […] Fc block (93) and all fluorescence dye labelled antibodies used αCD4 (GK1.5), αIFNγ (XMG1.2), αIL-17a (17B7), αFOXP3 (NRRF-30; FJK-16S) were purchased from eBiosciences (Thermo Fisher, UK). Multi-parameter analysis was performed on an LSR/Fortessa (Becton Dickinson Biosciences (BD)) and analysed using FlowJo software (Tree Star).

For the compound `CN1CCOc2c1c(N[C@H]1CC[C@@](C)(O)CC1)nn1c(-c3cccc(OC(F)(F)F)c3)nnc21` [Example 1, 1-Methyl-4-[6-methyl-3-(3-trifluoromethoxy-phenyl)-7,8-dihydro-6H-9-oxa-1,2,3a,4,6-pentaaza-cyclopenta[a]naphthalen-5-ylamino]-cyclohexanol], the EC50 in assay [1] came to 8.3 nM. For the same compound, in assay [2], the “anti-tumour efficacy (tumour volume)” value is “effective”. In addition, the “generation of immunoregulatory iTreg cells” value in assay [3] was “enhancing the generation”. Also, the “expression of the transcription factor FoxP3” value in assay [3] (96 hrs iTreg conditions, FACS) is recorded as “significantly increased expression”.
